# Laboratory results from US8241863B2, “Identification of an evolutionarily conserved pathway mediating transrepression of inflammatory response genes by nuclear receptors” (The Regents of the University of California, priority 2005, dated 2012).
# Test system: PPARγ-sensitive genes
# Test: Microarray of primary macrophages transfected with control or NCoR siRNA
# Type: cell-based
# Details: NCoR siRNA vs control siRNA
# Protocol: To determine how widely the SUMOylation/NCoR-dependent pathway is utilized by PPARγ to repress inflammatory response genes, microarray studies were performed in primary macrophages transfected with control siRNAs or siRNAs directed against NCoR mRNA.
compound,measurement,value
CN(CCOc1ccc(CC2SC(=O)NC2=O)cc1)c1ccccn1 (stereo not shown) [rosiglitazone],PPARγ-sensitive genes whose repression by ligand was abolished by knockdown of NCoR,80%
